The test addresses T1, recombinant 15-PGDH (Homo sapiens, UniProt P15428).
T1 sequence (P15428 1-266): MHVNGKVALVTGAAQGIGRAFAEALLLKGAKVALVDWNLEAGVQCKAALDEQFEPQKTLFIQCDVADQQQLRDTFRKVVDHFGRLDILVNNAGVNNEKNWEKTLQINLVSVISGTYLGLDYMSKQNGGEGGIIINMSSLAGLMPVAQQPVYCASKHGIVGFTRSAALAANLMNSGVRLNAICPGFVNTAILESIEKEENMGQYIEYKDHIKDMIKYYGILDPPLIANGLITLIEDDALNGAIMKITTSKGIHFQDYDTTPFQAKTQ
The format is biochemical. The conditions noted are these: recombinant human 15-PGDH, in vitro; read-out: PDGH Assay-IC50.

Some results are limits rather than exact numbers.

Text: The Recombinant 15-PGDH is human unless otherwise specified.

With `Nc1c([S@+]([O-])C2CCC2)sc2nc(-c3cnc(NCCO)nc3)cc(-c3ncccc3F)c12` [Example 181], the IC50 is under 2.5 nM. As for `Nc1c([S@@+]([O-])C2CCC2)sc2nc(-c3cnc(NCCO)nc3)cc(-c3ncccc3F)c12` [Example 182], the figure is at least 10 nM; as for `Nc1c([S+]([O-])C2CCC2)sc2nc(-c3cncnc3)cc(-c3ccc(OCCO)cc3)c12` (stereo not shown) [Example 183], under 2.5 nM; as for `Nc1c([S@+]([O-])C2CCC2)sc2nc(-c3cnc(NCCOCCO)nc3)cc(-c3ccccc3)c12` [Example 184], under 2.5 nM. In the case of `Nc1c([S@@+]([O-])C2CCC2)sc2nc(-c3cnc(NCCOCCO)nc3)cc(-c3ccccc3)c12` [Example 185] it was at least 10 nM. In the case of `COCC[S+]([O-])c1sc2nc(-c3cnc(N(C)CCO)nc3)cc(C(F)(F)F)c2c1N` (stereo not shown) [Example 186] it was 2.5 to 10 nM. With `COCCC[S+]([O-])c1sc2nc(-c3cnc(N(C)CCO)nc3)cc(C(F)(F)F)c2c1N` (stereo not shown) [Example 187], the 50% inhibitory concentration (IC50) was 2.5 to 10 nM.

`CN(CCO)c1ncc(-c2cc(C(F)(F)F)c3c(N)c([S+]([O-])C4CCC4)sc3n2)cn1` (stereo not shown) [Example 188]: the IC50 was 2.5 to 10 nM. As for `Nc1c([S+]([O-])C2CCC2)sc2nc(-c3cccnc3)nc(C3CC3)c12` (stereo not shown) [Example 189], the figure is under 2.5 nM; as for `COCC[S+]([O-])c1sc2nc(-c3cccnc3)nc(C3CC3)c2c1N` (stereo not shown) [Example 190], under 2.5 nM. As for `COCCC[S+]([O-])c1sc2nc(-c3cccnc3)nc(C3CC3)c2c1N` (stereo not shown) [Example 191], the figure is 2.5 to 10 nM.

On to `Nc1c([S+]([O-])C2CCC2)sc2nc(-c3cnc(NCCO)nc3)cc(-c3cccc(Cl)c3)c12` (stereo not shown) [Example 192], for which the half-inhibitory concentration (IC50) was under 2.5 nM. As for `Nc1c([S+]([O-])C2CCC2)sc2nc(-c3cnc(NCC(CO)CO)nc3)cc(-c3ccccc3)c12` (stereo not shown) [Example 193], the figure is under 2.5 nM; as for `Nc1c([S+]([O-])C2CCC2)sc2nc(-c3cnc(N4CCOCC4)nc3)cc(-c3ccccc3)c12` (stereo not shown) [Example 194], 2.5 to 10 nM; as for `Cn1nccc1-c1cc(-c2cncnc2)nc2sc([S+]([O-])C3CCC3)c(N)c12` (stereo not shown) [Example 195], under 2.5 nM.

Take `COCC[S+]([O-])c1sc2nc(-c3cnc(N)nc3)cc(-c3cnn(C)c3)c2c1N` (stereo not shown) [Example 196]: the IC50 is under 2.5 nM.

As for `Nc1c([S+]([O-])C2CCC2)sc2nc(-c3cnc(N(CCO)CCO)nc3)cc(-c3ccccc3)c12` (stereo not shown) [Example 197], the concentration for half-maximal inhibition (IC50) was under 2.5 nM.

For the compound `COCC[S@@+]([O-])c1sc2nc(-c3cncnc3)cc(C(F)(F)F)c2c1N` [Example 198], the half-inhibitory concentration (IC50) was under 2.5 nM. On to `COCC[S@+]([O-])c1sc2nc(-c3cncnc3)cc(C(F)(F)F)c2c1N` [Example 199], for which the half-inhibitory concentration (IC50) was at least 10 nM. In the case of `COCCC[S@@+]([O-])c1sc2nc(-c3cncnc3)cc(C(F)(F)F)c2c1N` [Example 200] it was under 2.5 nM; in that of `COCCC[S@+]([O-])c1sc2nc(-c3cncnc3)cc(C(F)(F)F)c2c1N` [Example 201], at least 10 nM.

Take `COCC[S@@+]([O-])c1sc2nc(-c3cnc(N)nc3)cc(C(F)(F)F)c2c1N` [Example 202]: the half-inhibitory concentration (IC50) is under 2.5 nM. As for `COCCC[S@@+]([O-])c1sc2nc(-c3cnc(N)nc3)cc(C(F)(F)F)c2c1N` [Example 203], the figure is under 2.5 nM; as for `Nc1c([S+]([O-])C2CCC2)sc2nc(-c3cncnc3)cc(C(F)(F)F)c12` (stereo not shown) [Example 204], under 2.5 nM. As for `Nc1c([S@+]([O-])C2CCC2)sc2nc(-c3cnc(NCCO)nc3)cc(C(F)(F)F)c12` [Example 205], the figure is under 2.5 nM; as for `COCC[S@@+]([O-])c1sc2nc(-c3cnc(NCCO)nc3)cc(C(F)(F)F)c2c1N` [Example 206], under 2.5 nM. On to `COCCC[S@@+]([O-])c1sc2nc(-c3cnc(NCCO)nc3)cc(C(F)(F)F)c2c1N` [Example 207], for which the IC50 is under 2.5 nM. With `COCC[S+]([O-])c1sc2nc(-c3cnc4nn(C)cc4c3)cc(C(F)(F)F)c2c1NC(C)=O` (stereo not shown) [Example 208], the IC50 is at least 10 nM.

By IC50 is commonly meant the midpoint of a concentration-inhibition curve.

Values taken from patent publication US12336982B2 (RODEO THERAPEUTICS CORPORATION, priority 2018, dated 2025).
